Assay results from ChEMBL document CHEMBL4610047, “Design, synthesis and anti-Alzheimer's disease activity study of xanthone derivatives based on multi-target strategy” (Bioorg Med Chem Lett, 2020).
The source made the active and inactive calls. The calls are words filed in the database; no cut-off is given here.

What was measured:
[1] = target: Cholinesterase (Equus caballus, UniProt P81908); assay: Inhibition of equine serum BChE using butyrylthiocholine as substrate by Ellman's method
[2] = Metal chelating activity assessed as compound-Cu2+ complex formation by measuring band wavelength at 10 uM in presence of CuCl2 after 30 mins by UV-visible spectrophotometric analysis
[3] = Metal chelating activity assessed as compound-Cu2+ complex stoichiometry ratio of 2:1 at 10 uM in presence of CuCl2 after 30 mins by UV-visible spectrophotometric analysis
[4] = Metal chelating activity assessed as compound-Cu2+ complex formation by measuring stability constant at 10 uM in presence of CuCl2 after 30 mins by UV-visible spectrophotometric analysis
[5] = target: Acetylcholinesterase (Electrophorus electricus, UniProt O42275); assay: Inhibition of electric eel AChE using acetylthiocholine iodide as substrate by Ellman's method
Chain of Acetylcholinesterase (O42275 whole entry): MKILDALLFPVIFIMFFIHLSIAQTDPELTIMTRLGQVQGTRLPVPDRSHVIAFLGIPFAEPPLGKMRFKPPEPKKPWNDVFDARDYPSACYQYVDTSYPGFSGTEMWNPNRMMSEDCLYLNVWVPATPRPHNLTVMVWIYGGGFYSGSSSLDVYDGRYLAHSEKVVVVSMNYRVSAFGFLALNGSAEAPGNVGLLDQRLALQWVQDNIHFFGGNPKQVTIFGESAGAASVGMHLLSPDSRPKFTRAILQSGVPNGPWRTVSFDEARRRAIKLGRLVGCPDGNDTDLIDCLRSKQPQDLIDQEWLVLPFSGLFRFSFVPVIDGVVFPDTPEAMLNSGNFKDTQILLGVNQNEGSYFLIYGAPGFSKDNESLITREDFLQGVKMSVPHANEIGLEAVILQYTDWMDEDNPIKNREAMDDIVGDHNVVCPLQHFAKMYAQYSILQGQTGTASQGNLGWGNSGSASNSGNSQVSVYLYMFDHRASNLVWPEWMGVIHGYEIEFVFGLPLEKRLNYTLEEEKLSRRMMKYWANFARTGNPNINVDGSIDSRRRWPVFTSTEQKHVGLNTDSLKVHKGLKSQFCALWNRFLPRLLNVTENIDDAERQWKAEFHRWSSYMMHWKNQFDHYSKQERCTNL

[6] = target: Acetylcholinesterase (Electrophorus electricus) (UniProt O42275); assay: Mixed type inhibition of electric eel AChE assessed as decrease in Vmax at 0.16 to 0.64 uM by reciprocal Lineweaver-Burk plot analysis
Chain of Acetylcholinesterase (Electrophorus electricus) (O42275 24-633 limits assumed): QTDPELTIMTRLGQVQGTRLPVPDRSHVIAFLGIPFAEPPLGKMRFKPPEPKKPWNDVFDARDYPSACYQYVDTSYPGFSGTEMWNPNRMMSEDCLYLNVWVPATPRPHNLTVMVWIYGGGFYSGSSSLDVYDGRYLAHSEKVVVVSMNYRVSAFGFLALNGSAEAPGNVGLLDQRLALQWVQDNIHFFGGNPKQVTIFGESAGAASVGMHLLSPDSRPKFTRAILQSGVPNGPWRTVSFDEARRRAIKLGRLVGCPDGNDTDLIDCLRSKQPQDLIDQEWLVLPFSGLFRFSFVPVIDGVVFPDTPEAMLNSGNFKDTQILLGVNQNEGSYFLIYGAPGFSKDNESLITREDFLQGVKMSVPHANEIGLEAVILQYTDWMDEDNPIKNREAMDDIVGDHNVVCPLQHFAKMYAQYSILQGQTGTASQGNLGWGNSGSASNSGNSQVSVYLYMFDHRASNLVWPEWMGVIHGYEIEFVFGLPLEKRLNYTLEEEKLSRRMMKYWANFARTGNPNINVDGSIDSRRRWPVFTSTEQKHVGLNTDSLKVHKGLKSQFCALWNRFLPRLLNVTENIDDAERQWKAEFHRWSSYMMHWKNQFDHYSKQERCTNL

[7] = target: Acetylcholinesterase (Electrophorus electricus) (UniProt O42275); assay: Mixed type inhibition of electric eel AChE assessed as increase in Km at 0.16 to 0.64 uM by reciprocal Lineweaver-Burk plot analysis

Chain of Cholinesterase (P81908 whole entry): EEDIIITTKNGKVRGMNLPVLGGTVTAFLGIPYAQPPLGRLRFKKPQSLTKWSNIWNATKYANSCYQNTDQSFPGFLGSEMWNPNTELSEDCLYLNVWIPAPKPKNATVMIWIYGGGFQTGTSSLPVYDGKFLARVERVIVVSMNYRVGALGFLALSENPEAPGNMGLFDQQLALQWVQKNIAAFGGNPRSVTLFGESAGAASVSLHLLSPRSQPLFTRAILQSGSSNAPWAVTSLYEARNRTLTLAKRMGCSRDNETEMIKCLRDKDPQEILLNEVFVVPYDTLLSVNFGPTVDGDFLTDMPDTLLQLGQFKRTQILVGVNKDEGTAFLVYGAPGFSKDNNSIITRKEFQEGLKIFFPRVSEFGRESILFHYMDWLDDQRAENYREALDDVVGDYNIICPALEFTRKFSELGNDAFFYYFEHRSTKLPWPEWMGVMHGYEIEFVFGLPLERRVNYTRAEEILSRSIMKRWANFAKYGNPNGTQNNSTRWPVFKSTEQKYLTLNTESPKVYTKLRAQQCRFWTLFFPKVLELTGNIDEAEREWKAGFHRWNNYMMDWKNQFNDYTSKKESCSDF

O=c1c2ccc(OCCN3CCCCC3)cc2oc2cc(OCCN3CCCCC3)cc(O)c12
IC50 [1]: 4.02 µM
Activity [2]: Active
Activity [3]: Active
K [4]: 2.16 ×10⁵ No_unit
IC50 [5]: 0.964 µM

CN(C)CCOc1ccc2c(=O)c3c(O)cc(OCCN(C)C)cc3oc2c1
IC50 [1]: 18 µM
Activity [2]: Active
Activity [3]: Active
K [4]: 1.65 ×10⁵ No_unit
IC50 [5]: 2.47 µM

O=c1c2ccc(OCCN3CCOCC3)cc2oc2cc(OCCN3CCOCC3)cc(O)c12
IC50 [1]: > 300 µM
Activity [2]: Active
Activity [3]: Active
K [4]: 1.14 ×10⁵ No_unit
IC50 [5]: 31.2 µM

O=c1c2ccc(OCCN3CCCC3)cc2oc2cc(OCCN3CCCC3)cc(O)c12
inhibition [6]: Active
IC50 [1]: 3.7 µM
inhibition [7]: Active
Activity [2]: Active
Activity [3]: Active
K [4]: 2.67 ×10⁵ No_unit
IC50 [5]: 0.328 µM
